Measured values as given in article PMC9127117, “Towards discovery of inhibitors of the undecaprenyl-pyrophosphate phosphatase BacA by virtual high-throughput screening” (Computational and Structural Biotechnology Journal, 2022).
“Also recorded” adds a separate entry of the source.

Key:
[1] = tested on: BWbacA-singleΔtolC strain; assay: Growth inhibition / MIC in 2YT liquid medium; type: cell-based, E. coli; settings: for MIC: BWbacA-singleΔtolC strain
Procedure: (§1) Bacteria were grown in 2YT broth supplemented, when required, with ampicillin or kanamycin at concentrations of 100 and 50 µg/ml, respectively. The BWΔtolC strain was obtained from the Keio collection. The BWΔbacAΔtolC and BWbacA-singleΔtolC were generated by P1 transduction of the ΔtolC::Kan^R cassette from BWΔtolC strain to BWΔbacA and DMEG9 recipient strains, respectively. The strains S. aureus RN4220 and S. pneumoniae R6 were used to evaluate the antibacterial activity of certain compounds. S. aureus was grown on BHI (Brain Heart Infusion) broth and S. pneumoniae was grown on Colombia broth supplemented with 5% horse blood.
(§2) For compounds displaying inhibitory activity on BacA catalysis, their antibacterial activity was tested on different E. coli strains by monitoring bacterial growth in the presence of compounds (125, 250 and 500 µM). One colony was cultured in 10 ml of 2YT liquid medium and incubated at 37℃ for 6 h. The absorbance of the culture at 600 nm (A600) was measured to prepare a bacterial suspension in 2YT liquid medium at 15.10^6 CFU/ml (A600 = 1 corresponds to 3.10^8 CFU/ml). The bacterial suspension (200-µl) was then grown on 96-well plates in the presence or not of compounds (5-µl), which was added from a stock solution prepared in DMSO. Negative controls were then performed by growing the cells without inhibitors in 2YT medium and in 2YT medium supplemented with 2.5% of DMSO. The plates were incubated at 37℃ overnight with A600 measurements every 10 min using a Tecan F200 PRO microplate reader (iControl software).

[2] = tested on: BWΔtolC strain; assay: Growth inhibition in 2YT liquid medium (off-target activity); type: cell-based, E. coli
Procedure: as §1, §2

[3] = tested on: E. coli BW25113 wild type strain; assay: Growth inhibition in 2YT liquid medium; type: cell-based; settings: 500 µM compound
Procedure: as §2
(§3) Two compounds, 3 and 5, were assessed for antibacterial activity using the broth microdilution method against the E. coli BW25113 wild type strain. […] Considering the plurality of C55-PP phosphatases in E. coli, the inhibition of BacA may not induce growth inhibition as long as the PAP2 enzymes (PgpB, YbjG, and LpxT) are functional. Consequently, compounds 3 and 5 were tested against a BW25113 variant in which the PAP2 enzymes were depleted (DMEG9 strain, alias BWbacA-single). […]

[4] = tested on: DMEG9 strain, alias BWbacA-single; assay: Growth inhibition in 2YT liquid medium; type: cell-based, E. coli; settings: PAP2-depleted DMEG9; 500 µM compound
Procedure: as §2, §3

[5] = tested on: BWΔbacAΔtolC strain; assay: Growth inhibition in 2YT liquid medium; type: cell-based, E. coli; settings: BacA and TolC depleted; 500 µM compound
Procedure: as §1
For compounds displaying inhibitory activity on BacA catalysis, their antibacterial activity was tested on different E. coli strains by monitoring bacterial growth in the presence of compounds (125, 250 and 500 µM). One colony was cultured in 10 ml of 2YT liquid medium and incubated at 37℃ for 6 h. The absorbance of the culture at 600 nm (A600) was measured to prepare a bacterial suspension in 2YT liquid medium at 15.10^6 CFU/ml (A600 = 1 corresponds to 3.10^8 CFU/ml). […] The plates were incubated at 37℃ overnight with A600 measurements every 10 min using a Tecan F200 PRO microplate reader (iControl software). […]

[6] = tested on: BWbacA-singleΔtolC strain carrying the empty vector (pTRCH30); assay: Growth inhibition, control strain carrying the empty vector; type: cell-based, E. coli; settings: 500 µM compound
Procedure: as §2
(§4) To further assess the specificity of compounds 3 and 5 with respect to BacA, they were tested against the strain depleted of both TolC and PAP2 but overexpressing an ectopic copy of the bacA gene on a plasmid.

[7] = tested on: BWbacA-singleΔtolC strain overexpressing an ectopic copy of the bacA gene on a plasmid; assay: Growth inhibition upon bacA overexpression; type: cell-based, E. coli; settings: bacA overexpressed in trans; 500 µM compound
Procedure: as §2, §4

[8] = molecular target: T1, PgpB (Escherichia coli, UniProt P0A924); assay: C55-PP phosphatase assay of PgpB; type: biochemical, E. coli; settings: 100 µM compound; data not shown
T1 construct: made in house
Procedure: C43(DE3) cells carrying pTrcBac30 plasmid were used for the expression of N-terminally His6-tagged BacA (His6-BacA) protein from E. coli. Cells were grown in 2YT-ampicillin at 37 °C and when the OD600 reached 0.9, the temperature of the culture was decreased to 22 °C and protein expression was induced by addition of 1 mM IPTG. Incubation was continued overnight at 22 °C and bacteria were harvested in the cold and washed in a buffer containing 20 mM Tris-HCl, pH 7.4, 0.4 M NaCl, 10% glycerol and 10 mM β-mercaptoethanol (buffer A). The cells were disrupted by three successive passages through a French press and the suspension was centrifuged at 200,000× g, 4 °C for 45 min. The pellet of membranes was washed with buffer A. The membranes were resuspended in buffer A supplemented by 2% DDM detergent. […] Fractions containing the BacA protein were subjected to an additional gel-filtration purification step on Superdex 200 (HiLoadTM 16/600 SuperdexTM 200) equilibrated in 0.1% DDM-containing buffer A. 1-ml fractions were collected and analysed by SDS-PAGE. […]
The C55-PP phosphatase activity of BacA was assessed by measuring the percentage of transformation of [^14C]C55-PP into [^14C]C55-P upon incubation with BacA by TLC analysis. […] The radioactive spots were located and quantified with a radioactivity scanner. […] The C55-PP phosphatase activity of PgpB was measured as described for BacA.

T1 sequence (P0A924 whole entry): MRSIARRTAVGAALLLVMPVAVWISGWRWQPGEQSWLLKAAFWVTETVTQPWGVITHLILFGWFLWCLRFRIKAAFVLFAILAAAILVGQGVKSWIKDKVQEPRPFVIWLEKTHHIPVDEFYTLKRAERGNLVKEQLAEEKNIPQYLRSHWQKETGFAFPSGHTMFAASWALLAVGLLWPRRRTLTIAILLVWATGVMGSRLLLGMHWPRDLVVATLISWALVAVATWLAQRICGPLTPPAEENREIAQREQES

With `O=C(O)c1csc(S(=O)(=O)Nc2ccc3sccc3c2)c1` [Compound 3] the MIC [1] was 169 mg/L, the MIC ([1]; 125, 250 and 500 µM tested) was 500 µM and the “class of antibacterial activity (Figure S2)” value ([1]; BWΔtolC and BWbacA-singleΔtolC strains, 250 and 500 µM) was “antibacterial activity on both strains”. For the same molecule, the growth inhibition ([1]; TolC/PAP2-depleted BWbacA-singleΔtolC, 500 µM compound) was “complete growth inhibition; also recorded: total growth inhibition”, the “increase of the doubling time of cells” value ([2]; BWΔtolC, 500 µM compound) was 3 fold and the growth inhibition ([2]; TolC-depleted BWΔtolC, 500 µM compound) was “moderate inhibition; also recorded: significant growth inhibition”. The Off-target activity ([2]; antibacterial activity against BWΔtolC) was “Yes”, the growth inhibition [3] was “No growth inhibition” and the growth inhibition [4] was “no growth inhibition”. The “growth inhibition (BacA-independent activity)” value [5] was “moderate inhibition; also recorded: significant, although moderate, BacA-independent activity”, the growth inhibition [6] was “total growth inhibition” and the “growth inhibition upon bacA overexpression” value [7] was “partially alleviated growth inhibition; also recorded: susceptibility was decreased at the level observed with the strain depleted of TolC alone”. For the same molecule, the “inhibition of PgpB” value [8] was “not inhibited”.
